We go through eight compounds from PMC8587515, “Cytotoxic and Anti-Inflammatory Activities of Dihydroisocoumarin and Xanthone Derivatives from Garcinia picrorhiza” (Molecules, 2021).

Like-named read-outs stand apart in the source and are kept apart here.

Data set [1] concerns the target T1, COX-1 (purified PGHS-1 from ram seminal vesicles) (Ovis aries, UniProt P05979).
T1 construct: Purified PGHS-1 from ram seminal vesicles for COX-1; purchased Cayman Chemical Co., Ann Arbor, MI, USA; host or cells: ram seminal vesicles (tissue-purified)
T1 sequence (P05979 25-600): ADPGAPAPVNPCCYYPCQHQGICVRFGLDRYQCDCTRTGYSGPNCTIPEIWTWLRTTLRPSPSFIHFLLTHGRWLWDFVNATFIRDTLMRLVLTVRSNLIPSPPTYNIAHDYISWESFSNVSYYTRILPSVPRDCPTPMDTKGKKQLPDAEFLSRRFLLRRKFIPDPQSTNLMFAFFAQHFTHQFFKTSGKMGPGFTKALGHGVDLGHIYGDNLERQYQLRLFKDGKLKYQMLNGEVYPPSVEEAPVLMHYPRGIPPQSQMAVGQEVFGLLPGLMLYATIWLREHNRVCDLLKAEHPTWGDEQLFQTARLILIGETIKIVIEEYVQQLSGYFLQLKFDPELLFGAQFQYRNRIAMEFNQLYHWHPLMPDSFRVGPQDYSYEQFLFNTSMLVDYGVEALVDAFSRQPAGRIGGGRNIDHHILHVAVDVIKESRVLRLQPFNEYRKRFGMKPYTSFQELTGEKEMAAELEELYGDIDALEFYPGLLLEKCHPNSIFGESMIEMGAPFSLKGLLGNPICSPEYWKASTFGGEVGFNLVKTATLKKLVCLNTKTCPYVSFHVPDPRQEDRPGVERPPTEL
The data set can be described thus: COX-1 enzyme inhibition assay (PGE2 ELISA). The conditions noted are these: mean ± SD (n = 4). It is filed as biochemical. Here is the method:
(§1) The anti-inflammatory effects of the isolated compounds were also screened on COX-1 and COX-2 enzymes inhibition at a final concentration of 20 µM.
(§2) Purified PGHS-1 from ram seminal vesicles for COX-1 and human recombinant PGHS-2 for COX-2 (Cayman Chemical Co., Ann Arbor, MI, USA) were used for the COX inhibition assays. Experiments were performed in a 96-well plate format, as previously described. Briefly, the incubation mixture contained 180 µL of 0.1 M TRIS/HCl-buffer pH 8.0 (Roth, Karlsruhe, Germany), 50 µM Na2EDTA (only for COX-2, Titriplex III, Merck, Darmstadt, Germany), 18 mM L-epinepherine bitartrate (Fluka, Buchs, Switzerland), 5 µM porcine hematin (MP Biomedicals LLC, Solon, OH, USA), and COX-1 or COX-2 enzymes (0.2 U/well). Ten microliters of tested compounds (dissolved in DMSO with a final concentration of 20 µM) was added and the mixture was pre-incubated for 5 min at room temperature. Thereafter, 10 µL of 5 µM arachidonic acid (Ann Arbor, Michigan USA) was added to the mixture and incubated for 20 min at 37 °C. The reaction was subsequently stopped by adding 10 µL of 10% (v/v) formic acid. The concentration of PGE2 generated in the reaction was quantitatively measured by a competitive PGE2 ELISA kit (Enzo Life Sciences Inc., Farmingdale, NY, USA) according to the manufacturer’s protocol and previous procedure. The absorbance at 405 nm was measured using a Hidex Sense Microplate Reader (Hidex, Turku, Finland). […] The assays were performed in duplicates and repeated in two independent experiments.
(ELISA stands for enzyme-linked immunosorbent assay.)

In data set [2] the target is T2, COX-2 (human recombinant PGHS-2) (Homo sapiens, UniProt P35354).
T2 construct: purchased Cayman Chemical Co., Ann Arbor, MI, USA
T2 sequence (P35354 18-604): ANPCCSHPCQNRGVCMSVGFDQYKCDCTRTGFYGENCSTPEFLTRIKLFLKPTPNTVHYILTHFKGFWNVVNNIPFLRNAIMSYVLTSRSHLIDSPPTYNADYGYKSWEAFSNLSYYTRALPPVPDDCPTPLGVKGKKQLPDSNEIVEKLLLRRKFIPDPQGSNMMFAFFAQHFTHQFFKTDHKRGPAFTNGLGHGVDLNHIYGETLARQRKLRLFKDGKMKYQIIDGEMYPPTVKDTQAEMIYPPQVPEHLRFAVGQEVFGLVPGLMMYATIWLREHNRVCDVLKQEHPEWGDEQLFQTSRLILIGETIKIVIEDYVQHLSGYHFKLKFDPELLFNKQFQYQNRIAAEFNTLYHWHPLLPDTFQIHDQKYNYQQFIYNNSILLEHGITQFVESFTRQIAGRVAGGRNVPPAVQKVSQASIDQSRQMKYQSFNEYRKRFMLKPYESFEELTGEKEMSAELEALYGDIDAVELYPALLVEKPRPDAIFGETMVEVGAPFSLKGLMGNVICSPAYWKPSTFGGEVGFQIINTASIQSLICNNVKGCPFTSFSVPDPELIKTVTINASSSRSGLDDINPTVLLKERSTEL
The data set can be described thus: COX-2 enzyme inhibition assay (PGE2 ELISA). It is filed as biochemical. The note with it: mean ± SD (n = 4). Here is the method: as §1, §2

A short description of data set [3]: Cytotoxicity (XTT cell viability), BV-2. Type of data set: cell-based. The conditions noted are these: mouse, BV-2 microglial cells, LPS/IFN-γ-stimulated, LPS-IFN-γ-induced cells, mean ± SEM (n = 6). The method, then: (§3) Compounds 1–8 were screened for their inhibitory effects on nitric oxide production in LPS-IFN-γ activated RAW 264.7 macrophages and BV-2 microglial cells at a final concentration of 50 µM. […] A deprenylated furanoxanthone structure with ortho hydroxy group in ring B as in 7 might be important to enhance the inhibitory effect when compared to 6 and 8.
(§4) The iNOS inhibitory activity of the isolated compounds and respective cytotoxicity was determined using a previously described protocol. Briefly, BV-2 mouse microglial (25,000 cells/well) and RAW 264.7 mouse macrophage (100,000 cells/well) cell lines were seeded into 96-well plates in high glucose Dulbecco’s Modified Eagle’s Medium (DMEM, Gibco) containing 4 mM L-glutamine, 10% FBS, 2% HEPES, 1% penicillin/streptomycin, and 0.5% amphotericin B. After incubation for 24 h at 37 °C in a 5% CO2 humidified atmosphere, the cells were stimulated with 0.05% LPS (Sigma) and 0.025% interferon-γ (Roche Diagnostics, Mannheim, Germany) and treated with different concentrations (5–100 μM) of the tested compounds. The level of NO production in cell culture supernatants was determined using Griess reagent (Sigma) by photocolorimetric analysis after 16 h of incubation, using a Hidex Sense Microplate Reader (Hidex, Turku, Finland). Fifty microliters of XTT reagent (Sigma, Kit II) was then added into the same plates for cell viability measurement after 60 min incubation. L-NMMA (Alexis, Grünberg, Germany) 100 µM was used as the positive control, while 1% DMSO and digitonin (Roth, Karlsruhe, Germany) 400 µM were used as the vehicle and negative control, respectively. The assays were conducted in triplicates and repeated in two independent experiments. IC50 values were determined by graphical analysis using GraphPad Prism 7 (GraphPad Software, La Jolla, CA, USA).
In general terms: Tetrazolium dyes change colour on reduction, which living cells bring about.

The subject of data set [4] is NO production in LPS-IFN-γ-induced RAW 264.7 macrophages. In words: NO production inhibition assay (Griess), RAW 264.7. Type of data set: cell-based, mouse. Here is the method:
as §3, §4
For orientation: Griess reagent forms a coloured azo dye with nitrite.

Data set [5] has as its system NO production in LPS-IFN-γ-induced BV-2 microglial cells. The data set can be described thus: NO production inhibition assay (Griess), BV-2. It is filed as cell-based, mouse. Here is the method:
as §3, §4

The nature of data set [6]: Cytotoxicity (XTT cell viability), RAW 264.7. Type of data set: cell-based. The note with it: mouse, RAW 264.7 macrophage cells, LPS/IFN-γ-stimulated, LPS-IFN-γ-induced cells, mean ± SEM (n = 6). Here is the method: as §3, §4
Data set [7] concerns HT-29 (human colon adenocarcinoma). Set-up: method as in PMID 30153471, PMID 33999337; key to IC50 ± SEM, HT-29: IC50 ≤ 10 µM = good cytotoxicity; 10 µM < IC50 ≤ 30 µM = weak cytotoxicity; inactive (IC50 > 30 µM). The conditions noted are these: MTT; results based on previous work; cited from earlier work.
The subject of data set [8] is HeLa S3 (human cervical carcinoma). Set-up: method as in PMID 30153471, PMID 33999337. The note with it: MTT; results based on previous work; read-out: IC50 ± SEM, HeLa S3; cited from earlier work.
Data set [9] relates to MCF-7 (human breast adenocarcinoma). On the set-up: method as in PMID 30153471, PMID 33999337. The conditions noted are these: MTT; results based on previous work; read-out: IC50 ± SEM, MCF-7; cited from earlier work.
Data set [10] relates to Hep G2 (human hepatocellular carcinoma). Set-up: method as in PMID 30153471, PMID 33999337. The note with it: MTT; results based on previous work; read-out: IC50 ± SEM, Hep G2; cited from earlier work.
Data set [11] has as its system KB (human epidermoid carcinoma). Set-up: method as in PMID 30153471, PMID 33999337. The note with it: MTT; results based on previous work; read-out: IC50 ± SEM, KB; cited from earlier work.
For data set [12] the test system is unchanged. The data set can be described thus: MTT cytotoxic activity assay, KB. It is filed as cell-based. The conditions noted are these: 72 h, mean ± SEM of three replicates. The method, then:
(§5) The cytotoxic activity of the isolated compounds was evaluated using the MTT viability assay with doxorubicin as the positive control and the results are presented in Table 2.
(§6) The MTT colorimetric method was performed to evaluate cytotoxic activity of the isolated compounds against human epidermoid carcinoma (KB; ATCC CCL17), human cervical carcinoma (HeLa S3; ATCC CCL2-2), human colon adenocarcinoma (HT-29; ATCC HTB-38), human breast adenocarcinoma (MCF-7; ATCC HTB-22), and human hepatocellular carcinoma (Hep G2; ATCC HB-8065) cell lines according to the previous method. The cancer cells were cultured in MEM containing 10% fetal bovine serum in the presence of 100 U/mL penicillin and 100 μg/mL streptomycin sulphate (Gibco, Rockville, MD, USA), seeded in a 96-well plate (3000 cells/well), and pre-incubated at 37 °C for 24 h in a 5% CO2 humidified atmosphere. The tested compounds with serial concentrations (0.3–100 μM) were added and incubated for a further 72 h in the same condition. At the end of treatment, 20 µL of MTT solution (5 mg/mL in PBS, Sigma, St. Louis, MI, USA) was added to each well and further incubated for 3 h. After centrifugation at 1400 rpm for 5 min at 4 °C, the supernatant was decanted and DMSO (100 µL/well) was added to allow formazan product solubilization, which was subsequently measured by a microplate reader (Tecan Trading AG, Switzerland) at wavelength 550 nm. Control cells were treated with 0.1% DMSO. Doxorubicin (tested concentrations: 0.01–3.0 μM, Sigma) was used as the positive control. The results are expressed as the mean values of three replicates for three independent experiments. IC50 values were determined by graphical analysis using SigmaPlot 10 (Systat Software Inc., San Jose, CA, USA), obtained by plotting the cell viability percentage versus sample concentration.

For data set [13], the system named is HeLa S3 (human cervical carcinoma). The data set can be described thus: MTT cytotoxic activity assay, HeLa S3. It is filed as cell-based. The note with it: 72 h, mean ± SEM of three replicates. Here is the method: as §5, §6
Where [14] appears, read: final concentration of 50 µM, preliminary screen.

For the compound `COc1c(O)cc2c(c1O)C(=O)O[C@@H](c1ccccc1)C2` [Compound 2, (−)-annulatomarin], the inhibition – broadly, how much of the control response was suppressed – at 20 µM in data set [1] was below 10%. In data set [2], the % Inhibition – broadly, the relative decrease from the control value, in per cent – at 20 µM, COX-2 was 10.4 ± 5.0% and the inhibition at 20 µM is above 10%.

On to `COc1c(O)cc2c(c1O)C(=O)O[C@@H](c1ccccc1O)C2` [Compound 3, 2′-hydroxyannulatomarin], for which the inhibition at 20 µM is 24.2 ± 12.3% in data set [1] and below 10% in data set [2].

On to `CC1(C)c2c(cc3oc4ccc(O)c(O)c4c(=O)c3c2O)O[C@@H]1CO` [Compound 5, 3′-hydroxycalothorexanthone], for which the values for the IC50 at 16 h in data set [3] and in data set [6] were 74.7 ± 2.1 µM and above 200 µM, respectively. For the same compound, the IC50 (in general, the point on the concentration scale where inhibition reaches its midpoint) was determined as 16.4 ± 4.5 µM in data set [4] (Mus musculus, RAW264.7, LPS-IFN-γ-induced, 16 h, mean ± SEM (n = 6), read-out: IC50, iNOS (inhibition of NO production), RAW 264.7) and 13.8 ± 1.6 µM in data set [5] (Mus musculus, BV-2, LPS-IFN-γ-induced, 16 h, mean ± SEM (n = 6), read-out: IC50, iNOS (inhibition of NO production), BV-2). The “suppression of NO production, RAW 264.7” value in data set [4] (setting [14]) was “over 70%”. For the same compound, the “suppression of NO production, BV-2” value in data set [5] (setting [14]) is “over 70%”.

In the case of `C[C@@H]1Oc2cc(O)c3c(=O)c4cccc(O)c4oc3c2C1(C)C` [Compound 6, pancixanthone B], the figures for the inhibition at 20 µM in data set [1] and in data set [2] were 31.2 ± 21.7% and below 10%, respectively. Moreover, the “IC50 ± SEM, HT-29” value in data set [7] was “inactive”. For the same compound, the IC50 in data set [8] is 20.7 ± 0.6 µM; in data set [9] it was 15.6 ± 0.3 µM; in [10], 22.8 ± 0.4 µM; in data set [11], 12.1 ± 0.1 µM.

On to `O=c1c2cccc(O)c2oc2ccc(O)c(O)c12` [Compound 9, 1,2,5-trihydroxyxanthone], for which the inhibition at 20 µM in [1] is 22.6 ± 2.2%; in [2] it was below 10%.

`COc1c(O)ccc2c(=O)c3c(O)cc(O)cc3oc12` [Compound 13, 1,3,6-trihydroxy-5-methoxyxanthone]: the half-inhibitory concentration (IC50) was 11.4 ± 1.7 µM in [12] and 15.2 ± 1.3 µM in data set [13].

With `COc1cc(O)c2c(=O)c3ccc(O)c(OC)c3oc2c1` [Compound 14, 1,6-dihydroxy-3,5-dimethoxyxanthone], the figures for the inhibition at 20 µM in data set [1] and in data set [2] were 18.3 ± 12.1% and below 10%, respectively.

Take `[H]/N=C(/NC)NCCC[C@H](N)C(=O)O` [L-NMMA, reference compound]: the inhibition at 100 µM turned out to be 64.1% in data set [4] (Mus musculus, RAW264.7, at 100 µM, read-out: inhibition of NO production, RAW 264.7 (positive control)) and 44.1% in data set [5] (Mus musculus, BV-2, at 100 µM, read-out: inhibition of NO production, BV-2 (positive control)).
